Data reported in patent US11780927B2, “Anti-CD40 antibodies for use in prevention of graft rejection” (NOVARTIS AG, priority 2018, dated 2023).
“And” between values parts separate entries of the source, which are not always exact repeats. Identical values can stand only once.

What was measured:
[1] = Dose-range finding embryo-fetal development study; type: in vivo; conditions: rabbits
Source text: Full guideline-conform reproductive toxicity studies have not been conducted thus far. However, a dose-range finding, embryo-fetal development (EFD) study in rabbits has been conducted in order to confirm the rabbit as relevant reproductive toxicology species.

[2] = tested on: human whole blood, PBMCs, monocyte-derived DCs, HUVECs; assay: Stimulatory potential in vitro (proliferation, CD69, cytokines); type: cell-based
Method: The ability of CFZ533 to stimulate activation of human leukocytes was assessed using proliferation and upregulation of the activation molecule CD69 on B cells in whole blood. […] Human whole blood from multiple donors (n=13) were incubated with a dose titration of CFZ533, and proliferation (^3H-TdR) was assessed after three days of culture. ii. Human PBMCs from multiple donors (n=26) were incubated with a dose titration of CFZ533, and proliferation (^3H-TdR) was assessed after three days of culture. For both graphs, data is presented as mean and SD of normalized cpm as a function of log-transformed CFZ533 concentration (rCD154+IL-4=100; dotted lines, cells plus media=0; dashed lines). […] Human PBMCs were stimulated for 3 days with a dose titration of CFZ533 in the presence of IL-4 (i) or anti-IgM F(ab′)2. (ii). The mean and SD of 3H-TdR (cpm) is shown as a function of log-transformed CFZ533 concentration. In FIG. 6C it is shown how human whole blood (41 donors) was cultured overnight with no stimuli, CFZ533, isotype control or rCD154 and CD69 expression on B cells was assessed by FACS. Each dot represents data from a single donor with mean % CD69 values indicated by a horizontal red line.

[3] = Plasma concentrations in solid organ transplantation patients; type: in vivo, human
Method: Without wishing to be bound by theory, the inventors have identified that sustained plasma concentrations at least about 40 μg/mL of the CFZ533 antibody was necessary to block the CD40-CD40L pathway in target tissues in solid organ transplantation patients. Thus, with a dosing regimen providing, throughout the entire treatment period, sustained plasma concentrations of at least 40 μg/mL and up to 400 μg/mL, in situations where CD40 expression in affected tissues would be enhanced (severity of the condition, activation of the immune system post transplantation), is considered for a therapeutic effect.

[4] = tested on: T cell-dependent antibody responses (TDAR); assay: Recall T cell-dependent antibody response to KLH; type: in vivo, rhesus monkeys; conditions: at second KLH immunization, single 10 mg/kg i.v.
Method: Monkeys were immunized with KLH three times (the first was about 3 weeks prior to dosing, the second was 2 weeks after mAb1 administration, and the third was after complete wash-out of mAb1). […] Once mAb1 was cleared, all animals mounted a full memory antibody response to the third KLH.
In the PK study, CFZ533 was administered to three animals at calculated single doses of 16.2 (5532), 18.5 (5531) and 20 (5530) mg/kg. Blood was sampled for analyses of CFZ533 serum concentrations, numbers of peripheral T and B lymphocytes, and CD40 occupancy on peripheral B cells by CFZ533. For recall TDAR experiments, animals were immunized with keyhole limpet hemocyanin (KLH) in Alum on study days 8 (priming) and 43 (recall; during CFZ533 treatment) respectively. Serum was sampled one day before and 7, 14 and 21 days after priming and recall immunizations. KLH specific IgM/IgG titers were determined with sandwich ELISA using cynomolgus monkey anti-KLH IgM/IgG reference serum as standard. PK assessment was performed as described above. See supplementary material for additional details on the PK and TDAR experiments.
Arrows below the x-axis highlight primary and secondary KLH immunizations. The timing of a single dose of 10 mg/kg CFZ533 is shown above. The asterisks indicate time points at which anti-KLH IgG and/or CFZ533 levels were measured. FIG. 10B. […]

human PBMCs = assay: rCD154 and IL-4-mediated proliferation (3H-TdR), human PBMCs; type: cell-based
[5] = tested on: transplanted kidney grafts; assay: Allograft biopsies scored by Chronic Allograft Damage Index (CADI); type: in vivo, human
Source text: The quality of the graft was estimated using the Chronic Allograph Damage Index (CADI) (Isoniemi et al. 1992 and 1994), where scores of ≤1 reflects normal renal histology and higher scores correlate with poor long-term outcome (Hayry et al. 2004, Yilmaz et al. 2007, Yilmaz et al. 2003). Pristine renal histology was found in 3 of 5 patients on iscalimab (60%) and in none of the 7 treated with tacrolimus (0%). The average CADI was 1.60±0.60 for CFZ533 (n=5) vs. 5.14±0.80 for tacrolimus (n=7), (mean±SEM, p<0.01 using Student t)
A PoC Study in de Novo Renal Transplantation (CCFZ533X2101/NCT02217410) using CFZ533 was performed. […] Allograft biopsies were performed on a subset of study patients. A pathologist, blinded to therapy, reviewed and scored all biopsy slides using the established Banff criteria and calculated the chronic allograft damage index (CADI, Nickerson P et al., Legendre C et al., Seron D et al.,). A CADI of 1 or less was considered as ‘normal renal histology’. Two patients were excluded from the analysis, since they switched therapy after only 2 months. […] The average CADI at final biopsy was 1.6±0.6 for CFZ533 and 5.1±0.8 for tacrolimus, p<0.01.

CFZ533: human anti-CD40 IgG1 monoclonal antibody with Fc-silencing N297A mutation; heavy chain SEQ ID NO: 9, light chain SEQ ID NO: 10
Effects on embryo-fetal development [1]: No effects on embryo-fetal development
Induction of thymidine incorporation (proliferation) ([2]; human whole blood (1:10 dilution) or PBMCs, three days): unable to induce thymidine incorporation
Induction of CD69 upregulation on B cells ([2]; human whole blood, overnight): unable to induce upregulation of CD69
Induction of cytokine production ([2]; monocyte-derived DCs or HUVECs): unable to induce cytokine production
Safety and tolerability at maximum plasma concentration ([3]; about 400 μg/ml at steady state): generally safe and well tolerated
Thromboembolic events ([3]; human, in vivo): No thromboembolic events were observed
observed maximum plasma concentration at steady state ([3]; human, in vivo): about 400 μg/ml
sustained plasma concentration necessary to block the CD40-CD40L pathway in target tissues ([3]; solid organ transplantation patients): at least 40 μg/mL
CFZ533 concentration required for complete suppression of recall TDAR ([4]; 10 mg/kg): > 40 µg/mL and 30 to 40 µg/mL
CFZ533 concentration required for complete suppression of recall TDAR ([4]; listed as mAb1, 10 mg/kg): > 40 µg/mL
Effect of delayed addition on rCD154-induced cellular activation (human PBMCs; added up to 6 hours after start of cultures containing rCD154): complete inhibition of cellular activation with minimal loss of potency
Inhibition of rCD154-induced proliferation (IC50 PBMCs) (human PBMCs; human PBMCs): 0.02 mg/L
IC50 (human PBMCs; human PBMCs, read-out: IC50, rCD154-induced proliferation): 0.12 nM
average CADI (mean±SEM) ([5]; final biopsy): 1.6±0.6
patients with normal (pristine) renal histology, CADI of 1 or less ([5]; treated for up to 25 months): 60%
